Earlier results in patent US6136845A (The Texas A&M University System, priority 1998, dated 2000).

Key:
liver = conditions: result in words; cited from earlier work
mammary tumor = conditions: cited from earlier work
CYP1A1 [1] = conditions: result in words; cited from earlier work
CYP1A1 [2] = conditions: rat, cited from earlier work; for ED50 for induction of hepatic CYP1A1-dependent activity: 6-i-propyl value estimated
rat uterus = conditions: immature female rat uterus; result in words; cited from earlier work

Cc1cc(Cl)c2oc3cc(Cl)cc(Cl)c3c2c1 [8-MCDF, 8-methyl-1,3,6-trichlorodibenzofuran]
liver morphology (liver): not accompanied by any significant changes | liver/body weight ratios (liver): not accompanied by any significant changes | growth inhibition (mammary tumor; 5 mg/kg/wk): > 50% | mammary tumor growth (mammary tumor; 5, 10 or 25 mg/kg/wk, result in words): significantly inhibited | induction of hepatic CYP1A1-dependent activity (CYP1A1 [1]): not accompanied by any significant changes

Clc1cc(Cl)c2c(c1)oc1c(C3CCCCC3)cc(Cl)cc12 [6-CHDF, 6-cyclohexyl-1,3,8-triCDF]
antitumorigenic activity (mammary tumor; 5 mg/kg/wk, result in words): inactive

Cc1cc(Cl)cc2c1oc1c(Cl)c(Cl)c(Cl)cc12 [6-methyl-2,3,4,8-tetraCDF, 6-methyl-2,3,4,8-tetrachlorodibenzofuran]
ED50 for induction of hepatic CYP1A1-dependent activity (CYP1A1 [2]): 8.52 mmol/kg | ED50 values for antiestrogenicity (rat uterus): similar

Cc1cc2c(cc1Cl)oc1c(Cl)c(Cl)c(Cl)cc12 [8-methyl-2,3,4,7-tetraCDF]
ED50 for induction of hepatic CYP1A1-dependent activity (CYP1A1 [2]): 5.31 mmol/kg | ED50 values for antiestrogenicity (rat uterus): similar

CC(C)c1cc(Cl)cc2c1oc1cc(Cl)cc(Cl)c12 [6-i-propyl-1,3,8-triCDF]
ED50 (CYP1A1 induction)/ED50 (antiestrogenicity) ratio (CYP1A1 [2]; high ratio indicates low toxicity and high antiestrogenic potency): 13,990-17,100 | ED50 values for antiestrogenicity (rat uterus): similar
